Reference: EP0239801B1, “Plant cells resistant to herbicidal glutamine synthetase inhibitors” (THE GENERAL HOSPITAL CORPORATION, priority 1986, dated 1987)
Like-named read-outs stand apart in the source and are kept apart here.

Assays:
[1] = tested on: variant PPT resistant alfalfa cell line; experiment: Growth of suspension cultures (packed cell volume), selected resistant cells; type: cell-based
Method: The amide nitrogen of glutamine provides the source of nitrogen for many biosynthetic reactions, indicating a central role for GS in nitrogen metabolism.
Selection is carried out in an appropriate culture medium by cultivating plant cells in the presence of stepwise increases of the herbicidal GS-inhibitor in the medium. After a given period of time has elapsed, such as, for example, a few weeks to several months, it is possible to select a cell population which is several-fold more resistant to the herbicidal GS-inhibitor than the original plant cells. For example, when the cells are alfalfa and the inhibitor is PPT, it has been possible to obtain a PPT-resistant alfalfa cell line after one year of stepwise PPT increases, which line was 20-fold more resistant to PPT than the original line. […] This was never possible by plating wild-type cells.
An alfalfa cell line which is able to grow in the presence of 3 mM L-phosphinothricin in the culture medium was selected. Alfalfa was chosen since it is one of the model plants in which the regeneration of a whole plant from single isolated cells or protoplasts can be readily achieved.
The selection of the phosphinothricin resistant alfalfa line was done by stepwise increase of the inhibitor concentration in the liquid culture medium. […]

[2] = molecular target: pea leaf glutamine synthetase; conditions: cited from earlier work
dicotyledonous weeds = conditions: field trials in West Germany, Spain, South Africa, U.S.A. and Japan; Schwerdtle 1981; cited from earlier work
[3] = molecular target: glutamine synthetase from E. coli (Escherichia coli, UniProt P0A9C5); conditions: competitive inhibitor; cited from earlier work
monocotyledonous weeds = conditions: field trials; Schwerdtle 1981; cited from earlier work
GS = GS activity of cell extracts in the presence of various amounts of phosphinothricin; type: biochemical, alfalfa; conditions: both cell types
Method: When the protein patterns of crude cell extracts of the susceptible and resistant cell lines were compared by SDS-polyacrylamide gel electrophoresis, the overproduction of a polypeptide in the molecular weight range 40-42 KD could be observed in the PPT-resistant cell line. Purified GS of alfalfa has the same molecular weight. The enzyme activity of the cell extracts was determined in parallel. The specific GS-activity in the resistant cells was 5-10 fold higher than in wild-type cells. The specific activity of GS in the PPT-resistant cell lines is in the same order of magnitude as in root nodule tissue of alfalfa, which, as all nodule tissues of efficiently dinitrogen fixing legumes, has high GS-activity.

Sequence of glutamine synthetase from E. coli (P0A9C5 2-469): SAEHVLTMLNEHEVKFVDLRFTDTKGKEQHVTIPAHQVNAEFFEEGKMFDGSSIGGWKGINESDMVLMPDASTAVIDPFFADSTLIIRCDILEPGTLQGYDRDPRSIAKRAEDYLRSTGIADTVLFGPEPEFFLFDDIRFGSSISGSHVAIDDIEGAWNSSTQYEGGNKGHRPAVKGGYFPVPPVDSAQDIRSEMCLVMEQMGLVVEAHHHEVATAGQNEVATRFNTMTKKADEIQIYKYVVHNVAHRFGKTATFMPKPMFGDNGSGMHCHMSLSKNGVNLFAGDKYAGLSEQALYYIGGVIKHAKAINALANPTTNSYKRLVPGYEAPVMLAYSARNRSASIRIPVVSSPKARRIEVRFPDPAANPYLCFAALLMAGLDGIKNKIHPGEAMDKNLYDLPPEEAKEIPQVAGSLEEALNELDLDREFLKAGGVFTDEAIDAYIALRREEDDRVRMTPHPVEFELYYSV

CP(=O)(O)CC[C@H](N)C(=O)O [L-phosphinothricin]
concentration in the culture medium in the presence of which the selected cell line is able to grow [1]: 3 mM

CS(=N)(=O)CCC(N)C(=O)O (stereo not shown) [MSO, methionine sulfoximime]
Ki ([2]; read-out: Ki value): 160 µM

CP(=O)(O)CC[C@H](N)C(=O)O [PPT, phosphinothricin]
weed control (dicotyledonous weeds): well controlled
Ki ([2]; mixed competitive inhibitor, Leason et al. 1982, read-out: apparent Ki value): 73 µM
Ki [3]: 5.9 µM
weed control (monocotyledonous weeds): somewhat higher quantities were needed for good control
enzyme inhibition in wild-type versus resistant cell extracts (GS): same degree of enzyme inhibition
